Experimental data taken from patent publication US20160137746A1, “METHODS FOR TREATING HIGH CARDIOVASCULAR RISK PATIENTS WITH HYPERCHOLESTEROLEMIA” (Sanofi Biotechnology, priority 2014, published 2016).
Where “and” joins values, the source holds several entries; their conditions need not be identical. Identical values can stand only once.

Test system: high cardiovascular risk patients with hypercholesterolemia
Assay: ODYSSEY LONG TERM: lipid efficacy of alirocumab 150 mg Q2W vs placebo
Format: in vivo, human
Settings: for Percent change from baseline in calculated LDL-C at week 24 (%), LS means (SE) / Percent change from baseline in calculated LDL-C at week 24, LS mean difference (SE) vs placebo / Calculated LDL-C percent change from baseline, LS mean (SE): ITT population; for Percent change from baseline in calculated LDL-C at week 24 (%), LS means (SE) / Percent change from baseline in calculated LDL-C at week 24, LS mean difference (SE) vs placebo: 150 Q2W; for Calculated LDL-C percent change from baseline, LS mean (SE): MMRM, alirocumab 150 Q2W
Protocol: Patients were stratified according to heFH population, prior history of MI or ischemic stroke, statin treatment and geographic region. Patients at high cardiovascular risk were defined as 1) having heFH (who may or may not have CHD/CHD risk equivalents) or 2) no prior diagnosis of heFH but having hypercholesterolemia together with established CHD or CHD risk equivalents.
Primary analyses of efficacy endpoints were conducted using an ITT approach (based on the ITT population defined above), including all lipid data, regardless of whether the patient was continuing therapy or not. This corresponds to ITT estimands, defined for primary and key secondary endpoints. In addition, analyses were also conducted using an on-treatment approach (based on the mITT population defined above), including lipid data collected during the efficacy treatment period. This corresponds to on-treatment estimands of key secondary endpoints.
With regards to the primary efficacy analysis (ITT approach), the percent change in calculated LDL-C from baseline to Week 24 was analyzed using a mixed-effect model with repeated measures (MMRM) approach. All post-baseline data available from Week 4 to Week 52 analysis windows were used and missing data were accounted for by the MMRM. […] This model provided baseline adjusted least-squares means (LSmeans) estimates at Week 24 for both treatment groups with their corresponding SEs and 95% confidence intervals.
Continuous secondary variables anticipated to have a normal distribution (i.e., lipids other than TGs and Lp(a)) were analyzed using the same MMRM model as for the primary endpoint. […] Combined estimate for mean in both treatment groups, as well as the differences of these estimates, with their corresponding SEs, 95% Cls and p-value were provided (through SAS MIANALYZE procedure).
Binary secondary efficacy endpoints were analyzed using multiple imputation approach for handling of missing values followed by stratified logistic regression with treatment group as main effect and corresponding baseline value(s) as covariate, stratified by randomization factors (as per IVRS). Combined estimates of odds ratio versus placebo, 95% CI, and p-value were provided (through SAS MIANALYZE procedure).

[1] = On-treatment analysis, 150 Q2W (N = 1523)
[2] = On-treatment analysis, 150 Q2W (N = 1523), combined estimate for adjusted mean (SE)
[3] = Pattern Mixture Model sensitivity analysis, 150 Q2W (N = 1523)
[4] = Week 24, free PCSK9 levels at or above the median
[5] = Week 24, free PCSK9 levels below the median

Alirocumab: human anti-PCSK9 antibody; HCVR SEQ ID NO:1, LCVR SEQ ID NO:6; CDRs SEQ ID NOs 2/3/4/7/8/10
Percent change from baseline in calculated LDL-C at week 24 (%), LS means (SE) (HeFH population (271 patients)): −56.3 (1.9) %
Percent change from baseline in calculated LDL-C at week 24, LS mean difference (SE) vs placebo (HeFH population): −63.2 (2.9) %
Calculated LDL-C percent change, LS mean difference vs placebo (ITT, Week 24): −61.9%
Calculated LDL-C, LS mean percent change from baseline (ITT, Week 24): −61.0%
Measured LDL-C, LS mean percent change from baseline (ITT, Week 24): −61.3%
Very high CV risk or high CV risk patients who reached calculated LDL-C <70 mg/dL or <100 mg/dL, respectively (ITT, Week 24): 80.7%
Proportion of patients reaching calculated LDL-C <70 mg/dL (ITT, Week 24, listed as alirocumab): 79.3% and 79%
Percent change from baseline in calculated LDL-C at week 24 (%), LS means (SE) (Non-HeFH population (1259 patients)): −62.1 (0.8) %
Percent change from baseline in calculated LDL-C at week 24, LS mean difference (SE) vs placebo (Non-HeFH population): −61.5 (1.4) %
Apo A1, LS mean (SE) change from baseline to Week 24 (%) [1]: 4.2 (0.4) %
Apo A1, LS mean difference (SE) vs placebo, percent change from baseline at Week 24 [1]: 2.9 (0.7) %
Apo B, LS mean (SE) change from baseline to Week 24 (%) [1]: −54.3 (0.7) %
Apo B, LS mean difference (SE) vs placebo, percent change from baseline at Week 24 [1]: −55.5 (1.2) %
Calculated LDL-C, LS mean (SE) change from baseline to Week 24 (%) [1]: −62.8 (0.7) %
Calculated LDL-C, LS mean difference (SE) vs placebo, percent change from baseline at Week 24 [1]: −63.5 (1.2) %
HDL-C, LS mean (SE) change from baseline to Week 24 (%) [1]: 4.2 (0.4) %
HDL-C, LS mean difference (SE) vs placebo, percent change from baseline at Week 24 [1]: 4.9 (0.7) %
Non-HDL-C, LS mean (SE) change from baseline to Week 24 (%) [1]: −53.1 (0.6) %
Non-HDL-C, LS mean difference (SE) vs placebo, percent change from baseline at Week 24 [1]: −53.7 (1.0) %
Total cholesterol, LS mean (SE) change from baseline to Week 24 (%) [1]: −38.8 (0.5) %
Total cholesterol, LS mean difference (SE) vs placebo, percent change from baseline at Week 24 [1]: −38.4 (0.8) %
Lipoprotein (a), LS mean difference (SE) vs placebo, percent change from baseline at Week 24 [2]: −26.3 (1.3) %
Lipoprotein (a), change from baseline to Week 24 (%) [2]: −30.2 (0.7) %
Triglycerides, LS mean difference (SE) vs placebo, percent change from baseline at Week 24 [2]: −17.2 (1.4) %
Triglycerides, change from baseline to Week 24 (%) [2]: −15.8 (0.8) %
Calculated LDL-C percent change, LS mean difference vs placebo (On-treatment, Week 24): −63.5%
Proportion of patients reaching calculated LDL-C <70 mg/dL (On-treatment, Week 24): 81.2%
Very high CV risk or high CV risk patients who reached calculated LDL-C <70 mg/dL or <100 mg/dL, respectively (On-treatment, Week 24): 82.8%
Calculated LDL-C, LS mean (SE) change from baseline to Week 24 (%) [3]: −57.8 (0.8) %
Calculated LDL-C, LS mean difference (SE) vs placebo, percent change from baseline at Week 24 [3]: −58.5 (1.3) %
Calculated LDL-C percent change from baseline, LS mean (SE) (Week 4): −64.8%
Calculated LDL-C percent change from baseline, LS mean (SE) (Week 8): −65.8%
Apo-B - Percent change from baseline to Week 12, LS mean difference vs. placebo (Week 12, ITT): placebo of −56%
Apolipoprotein A1 - Percent change from baseline to Week 12, LS mean difference vs. placebo (Week 12, ITT): placebo of 4%
Calculated LDL-C - Percent change from baseline to Week 12, LS mean difference vs. placebo (Week 12, ITT): placebo of −64.8%
Fasting TGs - Percent change from baseline to Week 12, combined estimate for adjusted mean difference vs. placebo (Week 12, ITT): vs. placebo of −17.9%
HDL-C - Percent change from baseline to Week 12, LS mean difference vs. placebo (Week 12, ITT): placebo of 5.6%
Lp(a) - Percent change from baseline to Week 12, combined estimate for adjusted mean difference vs. placebo (Week 12, ITT): vs. placebo of −25.1%
Non-HDL-C - Percent change from baseline to Week 12, LS mean difference vs. placebo (Week 12, ITT): placebo of −54.6%
Total-C - Percent change from baseline to Week 12, LS mean difference vs. placebo (Week 12, ITT): placebo of −39%
Calculated LDL-C percent change from baseline, LS mean (SE) (Week 12): −63.3%
Calculated LDL-C - Percent change from baseline to Week 12, LS mean difference vs. placebo (Week 12, On-treatment): placebo of −65.5%
Calculated LDL-C percent change from baseline, LS mean (SE) (Week 16): −64.5%
Calculated LDL-C percent change, LS mean difference vs placebo [4]: −66.0%
Calculated LDL-C, LS mean percent change from baseline [4]: −62.7%
Calculated LDL-C percent change, LS mean difference vs placebo [5]: −58.0%
Calculated LDL-C, LS mean percent change from baseline [5]: −59.4%
Calculated LDL-C percent change, LS mean difference vs placebo (Week 24, men): −64.7%
Calculated LDL-C, LS mean percent change from baseline (Week 24, men): −65.5%
